Data published in paper PMC5716539, “The acute glucose lowering effect of specific GPR120 activation in mice is mainly driven by glucagon-like peptide 1” (PLoS ONE, 2017).

Experiments:
lean mice = assay: Plasma total GLP-1 levels after oral administration in mice; type: in vivo, mouse; conditions: 30 min after AZ13581837 or 60 min after Metabolex-36, oral, vs respective control group
Procedure: (§1) In separate experiments, mice were pretreated with the GLP-1 receptor antagonist exendin 9–39 (30 nmol/kg, Bachem; intraperitoneally) alone or in combination with the GPR120 agonists, 15 min prior to the IVGTT. Insulin and glucose were measured 0, 1, 5, 10, 20 and 40 min after intravenous (iv) glucose administration. In separate groups of mice total GLP-1 levels were measured 60 min after oral administration of Metabolex-36 or 30 min after AZ13581837 and in corresponding vehicle (0.5% HPMC, 0.1% Tween-80) dosed mice. Blood samples were collected in EDTA coated tubes, centrifuged at 10000xg for 4 min, and plasma was separated and stored frozen until analyzed.
Glucose was measured using a glucometer (AccuCheck, Bayer). Circulating hormones were measured using specific ELISA kits; insulin (ultra-sensitive mouse insulin, Crystal Chemistry), and total and active GLP-1 (Millipore).

human GPR40 = human GPR40 (Homo sapiens, UniProt O14842); assay: DMR assay in CHO-hGPR40 cells; type: cell-based
human GPR40, sequence (O14842 whole entry): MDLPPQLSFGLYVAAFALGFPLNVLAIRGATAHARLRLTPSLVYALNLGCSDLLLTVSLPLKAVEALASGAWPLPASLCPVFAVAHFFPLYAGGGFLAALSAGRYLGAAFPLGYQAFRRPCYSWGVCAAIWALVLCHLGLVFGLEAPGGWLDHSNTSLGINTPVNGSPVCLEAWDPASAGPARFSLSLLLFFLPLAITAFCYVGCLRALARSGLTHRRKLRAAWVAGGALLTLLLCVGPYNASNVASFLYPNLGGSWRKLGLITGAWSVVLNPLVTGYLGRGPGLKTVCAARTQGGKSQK
Procedure: DMR (dynamic mass redistribution) was measured by resonant waveguide grating (RWG) using an Epic biosensor (Corning). CHO-hGPR120, CHO-mGPR120 and CHO cells in DMEM/F-12 (Invitrogen) were cultured in fibronectin coated 384-well Epic plates (Corning) at 37°C, 95% humidity and 5% CO2 for 5 hours with 10% FBS (Sigma), followed by 19 hours without FBS. CHO-hGPR40 cells were cultured at 37°C, 95% humidity and 5% CO2 for 20–24 hours in Ham’s F-12 Nutrient Mix with GlutaMAX (Invitrogen) supplemented with Non-Essential Amino Acids (Gibco) and 10% FBS (Sigma) in fibronectin coated 384-well Epic plates (Corning). Following the incubations culture media was replaced with HBSS (Invitrogen), 20 mM HEPES (Invitrogen), pH 7.4 and 1% DMSO and equilibrated to 26°C in the Epic for thirty min before addition of agonists and detection of DMR.

control CHO cells [1] = assay: Calcium mobilization assay in control CHO cells; type: cell-based, Chinese hamster
Procedure: CHO-hGPR120 and CHO cells were cultured in DMEM/F-12 (Invitrogen) with 10% FBS (Sigma) and HEK293-mGPR40 in DMEM (Invitrogen) supplemented with 10% FBS in 384-well poly-D-Lysin coated microplates (Greiner) at 37°C, 95% humidity and 5% CO2. After 19 hours cell media was replaced with Calcium4 dye (Molecular Devices) in HBSS (Invitrogen), 20 mM HEPES (Invitrogen), pH 7.4 and 1.25 mM Probenecid (Sigma). After 1 hour at room temperature agonists were added and calcium mobilization was detected as change in fluorescence (λex = 488 and λem = 540 nm) using a FLIPR^TETRA (Molecular Devices).

[2] = Pharmacokinetic properties; type: in vivo, mice; conditions: insufficient for chronic treatment
control CHO cells [3] = assay: cAMP assay in control CHO cells; type: cell-based, Chinese hamster
Procedure: CHO-hGPR120 or CHO cells in HBSS (Invitrogen), 20 mM HEPES (Invitrogen), pH 7.4, 0.01% BSA, 1.5 mM 3-isobutyl-1-methylxanthine (Sigma) and d2-labeled cAMP (CisBio) were incubated with GPR120 agonists (1% DMSO) for 45 min at room temperature in white small-volume 384-well plates (Greiner). The reaction was terminated by addition of conjugate and lysis buffer (CisBio) supplemented with anti-cAMP Cryptate (CisBio).

human GPR120 = target: T1, human GPR120 (Homo sapiens, UniProt Q5NUL3); assay: DMR (dynamic mass redistribution) assay in CHO-hGPR120 cells; type: cell-based; conditions: for DMR response after Gαs inhibition: CHO-hGPR120 cells treated with CTX; for DMR response after Gαi inhibition: CHO-hGPR120 cells treated with PTX; for DMR response after Gαq inhibition: CHO-hGPR120 cells treated with QIC; for EC50: mean ± SEM
T1 construct: expressed in transfected cells
T1 sequence (Q5NUL3 1-361): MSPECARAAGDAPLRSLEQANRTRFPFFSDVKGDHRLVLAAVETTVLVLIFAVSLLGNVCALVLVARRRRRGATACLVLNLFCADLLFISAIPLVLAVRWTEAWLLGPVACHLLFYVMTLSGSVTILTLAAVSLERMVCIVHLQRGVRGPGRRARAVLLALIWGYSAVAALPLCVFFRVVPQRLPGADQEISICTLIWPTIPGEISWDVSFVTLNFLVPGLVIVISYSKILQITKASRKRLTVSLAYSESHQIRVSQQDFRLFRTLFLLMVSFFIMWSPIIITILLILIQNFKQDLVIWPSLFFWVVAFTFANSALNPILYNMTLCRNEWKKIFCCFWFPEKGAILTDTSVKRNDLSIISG

lean female mice = assay: Intravenous glucose tolerance test (IVGTT) in lean female mice; type: in vivo, mouse; conditions: for Basal blood glucose: 4-hour fasted female mice, oral Metabolex-36 100 mg/kg or AZ13581837 35 mg/kg, vehicle 7.8±0.2 mM; for Acute insulin response (AIR): vs controls; for Acute insulin response (AIR) / Glucose elimination between 1 and 20 min / Time after iv glucose bolus up to which insulin levels were significantly elevated: Metabolex-36 100 mg/kg; for Acute insulin response (AIR) / Glucose elimination between 1 and 20 min: AZ13581837 35 mg/kg oral; for Time after iv glucose bolus up to which insulin levels were significantly elevated: oral pre-administration, AZ13581837 35 mg/kg
Procedure: Lean female mice (body weight 20–25 g), were randomized on body weight and fasted 4 hours prior to the IVGTT. Metabolex-36 (100 mg/kg) was administered orally 60 min and AZ13581837 (35mg/kg) 30 min before the IVGTT ([…]). Control mice were given vehicle (0.5% HPMC, 0.1% Tween-80) at corresponding time points. The specificity of AZ13581837 was examined in IVGTT in GPR120 null mice. GPR120 agonist doses were selected to reach plasma levels of at least 10 times over the in vitro EC50 value to achieve maximal activation of GPR120 (S2 Appendix). Thirty minutes prior to the glucose load, the mice were anaesthetised (20 mg/kg fluanisone/0.8 mg/kg fentanyl (Hypnorm®, Janssen, Beerse, Belgium) and 10 mg/kg midazolam (Dormicum®, Hoffman-LaRoche, Basel, Switzerland)) to allow for rapid blood sampling. The mice were kept at a heating pad to maintain body temperature.
as §1
In the IVGTT, the acute insulin response (AIR) was calculated as the mean of suprabasal 1 and 5 min values, and the glucose elimination was quantified using the glucose elimination constant (KG) calculated as the slope of the logarithmic transformation of circulating glucose between 1 and 20 min after the glucose bolus. Multiple comparisons between the different groups were performed by one-way ANOVA. Tukey’s or Bonferroni’s post hoc test were used to calculate statistical differences between the groups. Significant statistical difference was considered at p<0.05. Data are presented as mean ± SEM.

[4] = exendin 9–39 30 nmol/kg i.p. 15 min prior to IVGTT

Compound	Total GLP-1 levels (lean mice)	DMR response in CHO-hGPR40 cells (human GPR40)	Calcium response in control CHO cells (control CHO cells [1])	Pharmacokinetic properties (half-life) [2]	cAMP levels in control CHO cells (control CHO cells [3])	DMR response after Gαs inhibition (human GPR120)	DMR response after Gαi inhibition (human GPR120)	DMR response after Gαq inhibition (human GPR120)	EC50 (human GPR120; CHO-hGPR120 cells) [nM]	Basal blood glucose (lean female mice) [mM]	Acute insulin response (AIR) (lean female mice; IVGTT)	Glucose elimination between 1 and 20 min (lean female mice; IVGTT)	Agonist-induced increase in insulin secretion after co-administration with exendin 9–39 (lean female mice; [4])	Time after iv glucose bolus up to which insulin levels were significantly elevated (lean female mice)	further results
C#Cc1cc(Oc2cccnc2)cc(N2Cc3ccccc3S2(=O)=O)c1 [AZ13581837, 2-(3-ethynyl-5-(3-pyridyloxy)phenyl)-3H-1,2-benzothiazole 1,1-dioxide]	significant increase	Neither AZ13581837 nor Metabolex-36 were able to induce a DMR response	no response	short half-life	no increase	partly blocked	did not result in any significant decrease	only partly reduced	5.2 ± 0.6	7.1 ± 0.3	significant increase	increased the glucose elimination	completely abolished	up to 10 minutes	Potency relative to Metabolex-36 in DMR response (human GPR120; CHO-hGPR120 cells, fold more potent than Metabolex-36): about 100 fold; Insulin secretion in IVGTT (agonist alone) (lean female mice; exendin 9–39 experiment, agonist alone vs vehicle): significant increase; Acute insulin secretion in wt mice (lean female mice; female wild type mice, AZ13581837 30 min prior to iv glucose, vs vehicle, p<0.05): significantly increased; Glucose elimination in wt mice compared to compound treated GPR120 null mice (lean female mice; female wt mice, IVGTT, p<0.05): increased
3-(3,5-difluoro-4-((3-methyl-1-phenyl-1H-pyrazol-5-yl)methoxy)phenyl)-2-methylpropanoic acid [Metabolex-36]	significant increase	Neither AZ13581837 nor Metabolex-36 were able to induce a DMR response	no response	short half-life	no increase	partly blocked	did not result in any significant decrease	only partly reduced	570 ± 150	6.9 ± 0.2	significant increase	increased the glucose elimination	abolished	up to 5 minutes	Acute insulin response when given together with exendin 9–39 (lean female mice; [4]): reduced to vehicle levels; Glucose elimination when given together with exendin 9–39 (lean female mice; [4]): reduced to vehicle levels; Glucose lowering effect in combination with exendin 9–39 (lean female mice; [4]): abolished
